Data published in patent publication US20200121684A1, “MODULATORS OF BTK PROTEOLYSIS AND METHODS OF USE” (Yale University, priority 2018, published 2020).
Where a name gives a salt, the structure may show the parent alone.

Experiments:
[1] = biological target: T1, HER3 (Homo sapiens, UniProt P21860); experiment: HER3 (ERBB3) degradation, immunoblot; format: cell-based; details: Table 5
T1 construct: endogenous in cells

[2] = biological target: T2, BTK (Homo sapiens, UniProt Q06187); experiment: BTK degradation in NAMALWA cells, immunoblot; format: cell-based; details: NAMALWA cells
T2 construct: host or cells: NAMALWA

[3] = biological target: C481S BTK (Homo sapiens, UniProt Q06187, C481S); experiment: In vitro kinase inhibition, recombinant BTK, 10-point dose response, 10 μM ATP
Chain of C481S BTK (Q06187 whole entry C481S): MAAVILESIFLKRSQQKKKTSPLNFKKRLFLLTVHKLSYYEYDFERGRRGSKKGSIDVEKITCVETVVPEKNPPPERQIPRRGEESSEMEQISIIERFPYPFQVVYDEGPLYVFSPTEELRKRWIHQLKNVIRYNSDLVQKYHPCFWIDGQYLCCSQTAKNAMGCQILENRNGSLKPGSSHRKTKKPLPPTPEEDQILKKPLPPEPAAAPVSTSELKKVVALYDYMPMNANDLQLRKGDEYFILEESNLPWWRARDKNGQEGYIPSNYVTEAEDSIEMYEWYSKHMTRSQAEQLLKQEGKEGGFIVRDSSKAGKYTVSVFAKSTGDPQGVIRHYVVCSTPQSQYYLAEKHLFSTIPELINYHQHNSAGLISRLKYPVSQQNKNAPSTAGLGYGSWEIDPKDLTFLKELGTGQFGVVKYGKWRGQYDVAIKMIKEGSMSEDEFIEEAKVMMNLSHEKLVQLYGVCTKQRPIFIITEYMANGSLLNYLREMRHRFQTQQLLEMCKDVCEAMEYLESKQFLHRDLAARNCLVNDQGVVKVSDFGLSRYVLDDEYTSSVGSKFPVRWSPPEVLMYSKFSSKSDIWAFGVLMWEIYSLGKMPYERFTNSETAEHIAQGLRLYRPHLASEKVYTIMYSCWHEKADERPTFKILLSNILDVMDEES

T2 sequence (Q06187 whole entry): as the sequence (Q06187 whole entry C481S) above, with S481C counted along it
T1 sequence (P21860 20-1342): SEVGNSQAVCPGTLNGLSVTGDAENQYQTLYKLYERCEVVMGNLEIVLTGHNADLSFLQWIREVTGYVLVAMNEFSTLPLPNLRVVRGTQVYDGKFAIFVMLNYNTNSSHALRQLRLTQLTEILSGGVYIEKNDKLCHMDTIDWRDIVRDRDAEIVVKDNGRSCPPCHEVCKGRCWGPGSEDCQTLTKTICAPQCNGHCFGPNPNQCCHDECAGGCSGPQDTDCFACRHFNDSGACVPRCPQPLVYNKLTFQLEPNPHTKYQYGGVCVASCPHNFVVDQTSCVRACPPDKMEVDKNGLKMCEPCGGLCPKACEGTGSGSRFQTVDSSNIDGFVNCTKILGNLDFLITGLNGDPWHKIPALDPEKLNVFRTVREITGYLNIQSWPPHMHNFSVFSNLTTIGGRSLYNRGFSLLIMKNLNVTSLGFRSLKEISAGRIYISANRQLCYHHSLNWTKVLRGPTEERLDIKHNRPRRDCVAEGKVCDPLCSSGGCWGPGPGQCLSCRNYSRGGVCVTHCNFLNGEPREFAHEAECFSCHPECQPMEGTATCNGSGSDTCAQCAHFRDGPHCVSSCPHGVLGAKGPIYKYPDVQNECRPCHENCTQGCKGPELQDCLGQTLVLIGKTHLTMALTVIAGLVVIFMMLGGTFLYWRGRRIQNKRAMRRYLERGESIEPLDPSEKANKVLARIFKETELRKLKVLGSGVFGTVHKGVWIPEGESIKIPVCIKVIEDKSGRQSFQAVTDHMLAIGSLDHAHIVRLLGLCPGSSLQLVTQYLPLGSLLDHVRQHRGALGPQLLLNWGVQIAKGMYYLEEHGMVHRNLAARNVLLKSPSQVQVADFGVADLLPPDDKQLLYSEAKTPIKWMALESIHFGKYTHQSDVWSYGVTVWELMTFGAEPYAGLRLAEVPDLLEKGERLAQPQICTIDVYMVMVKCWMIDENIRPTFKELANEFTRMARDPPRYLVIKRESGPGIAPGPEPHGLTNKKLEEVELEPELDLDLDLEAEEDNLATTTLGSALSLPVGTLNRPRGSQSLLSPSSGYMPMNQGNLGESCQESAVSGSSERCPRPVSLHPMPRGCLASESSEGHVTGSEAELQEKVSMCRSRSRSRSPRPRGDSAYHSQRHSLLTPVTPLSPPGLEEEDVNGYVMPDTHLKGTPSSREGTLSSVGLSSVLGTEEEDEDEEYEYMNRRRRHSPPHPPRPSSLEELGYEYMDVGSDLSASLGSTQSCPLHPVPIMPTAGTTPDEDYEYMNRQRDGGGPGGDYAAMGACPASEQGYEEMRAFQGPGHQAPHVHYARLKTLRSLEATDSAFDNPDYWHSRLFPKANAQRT

| Compound | HER3 Degradation [1] | BTK degradation at 1.0 μM [2] | inhibition potency against C481S mutant BTK relative to wild-type [3] | DC50 ([2]; Table 5) [nM] |
| --- | --- | --- | --- | --- |
| Nc1ncnc2c1c(-c1ccc(Oc3ccccc3)cc1)nn2C1CCN(CCCCOCCCCOCC(=O)Nc2cccc3c2C(=O)N(C2CCC(=O)NC2=O)C3=O)CC1 (stereo not shown) [Compound 106, 2-[4-[4-[4-[4-amino-3-(4-phenoxyphenyl)pyrazolo[3,4-d]pyrimidin-1-yl]-1-piperidyl]butoxy]butoxy]-N-[2-(2,6-dioxo-3-piperidyl)-1,3-dioxo-isoindolin-4-yl]acetamide] | No | nearly complete degradation of BTK |  |  |
| Nc1ncnc2c1c(-c1ccc(Oc3ccccc3)cc1)nn2C1CCNCC1 [compound 1, 3-(4-phenoxyphenyl)-1-(piperidin-4-yl)-1H-pyrazolo[3,4-d]pyrimidin-4-amine hydrochloride, reference compound] |  |  | retained inhibition potency |  |
| Nc1ncnc2c1c(-c1ccc(Oc3ccccc3)cc1)nn2C1CCN(CCCCCCOCCOCC(=O)Nc2cccc3c2C(=O)N(C2CCC(=O)NC2=O)C3=O)CC1 (stereo not shown) [Compound 104, 2-(2-(6-(4-(4-amino-3-(4-phenoxyphenyl)-1H-pyrazolo[3,4-d]pyrimidin-1-yl)piperidin-1-yl)hexyloxy)ethoxy)-N-(2-(2,6-dioxopiperidin-3-yl)-1,3-dioxoisoindolin-4-yl)acetamide] | No | nearly complete degradation of BTK |  |  |
| (2S,4R)-1-((S)-25-(4-(4-amino-3-(4-phenoxyphenyl)-1H-pyrazolo[3,4-d]pyrimidin-1-yl)piperidin-1-yl)-2,2-dimethyl-5-oxo-7,10,13,16,19-pentaoxa-4-azapentacosanecarbonyl)-4-hydroxy-N-(4-(4-methylthiazol-5-yl)benzyl)pyrrolidine-2-carboxamide [Compound 118] | No |  |  | 231 |
